Assay results published in patent US10512656B2, “Compositions and methods for the treatment of lysosomal storage disorders and disorders characterized by lysosomal dysfunction” (Baylor College of Medicine, priority 2016, dated 2019).

Test system: lysosomal genes
Experiment: Real-time qPCR in primary cortical neuron cultures
Assay type: cell-based, mouse
Conditions: cortical neurons from WT and Cln3^Δex7-8 embryos, 100 mM trehalose
Method: Cortical and Hippocampal neurons were prepared from E17.5 and postnatal day 0-1 mice and plated on poly-D-lysine coated six-well plates (BD Biosciences) in Neurobasal medium supplemented with GlutaMAX-I (Invitrogen), B-27 and 1% FBS. At days in vitro (DIV) 4, neurons were treated with 100 mM trehalose. At DIV 8, neurons were collected and RNA extraction was performed.
Total RNA was extracted from the control and JNCL fibroblasts and from WT and Cln3^Δex7-8 cortical neuron cultures using the RNEasy kit (Qiagen) according to the manufacturer's instructions. Half of the mouse brain was processed for the RNA extraction and one microgram was used for complementary DNA synthesis by QuantiTect Reverse Transcription kit (Qiagen). The primers for PCR with reverse transcription reactions are listed in Table St Quantitative real-time PCR was performed by using iQ SYBR Green Supermix on the CFX96 Touch Real-Time Detection System (Bio-Rad Laboratories). Samples were heated for 3 min at 95° C. and amplified in 39 cycles for 11 s at 95° C., 45 s at 60° C. with last cycle of 10 s at 95° C., 5 s at 65° C. and 5 s at 95° C. Analyses were conducted using CFX manager software (Bio-Rad) and the threshold cycle (CT) was extracted from the PCR amplification plot. Relative gene expression was determined using the ΔΔCT method, normalizing to GAPDH (for human genes) and cyclophilin (for mouse genes). […]

## OC[C@H]1O[C@H](O[C@H]2O[C@H](CO)[C@@H](O)[C@H](O)[C@H]2O)[C@H](O)[C@@H](O)[C@@H]1O [trehalose, a-D-glucopyranosyl a-D-glucopyranoside]
  expression of lysosomal genes: transcriptional activation of lysosomal genes
